Here are results for one compound from patent US20260345649A1, “PHARMACEUTICAL COMPOSITION FOR DESTRUCTION OF TUMOR BLOOD VESSELS” (SAMSUNG MEDICAL FOUNDATION, priority 2022, published 2026).

For one data set, the system named is HUVECs. As to the kind of experiment: LDH release assay in HUVECs. It is filed as cell-based, human. The conditions noted are these: 1 mM, 5 mM, and 10 mM 5-FU, time-dependent, P<0.05, FIG. 4. On the procedure:
It has been generally reported that an increase in the expression of thrombospondin-1 (TSP-1) and thrombospondin-2 (TSP-2) induces apoptosis in endothelial cells. To investigate whether the administration of 5-fluorouracil (5-FU) enhances apoptosis in endothelial cells, an LDH release assay was conducted in human umbilical vein endothelial cells (HUVECs). Cytotoxicity was assessed based on the amount of lactate dehydrogenase (LDH) released due to cell membrane damage. The released LDH was quantified using an LDH assay kit (EZ-LDH1000; DoGenBio, Seoul, Korea) according to the manufacturer's protocol.
HUVECs (5×10^4 cells/well) were seeded in a 96-well polystyrene plate and incubated at 37 °C for 24 hours. LDH substrate was added to each well, followed by an additional incubation at 37 °C for 10 minutes. The plate was centrifuged at 600 g for 5 minutes. A 10-μL aliquot of the supernatant was transferred from the culture plate wells to an analysis plate. Subsequently, 100 μL of LDH reaction mixture reagent was added to the supernatant in each well of the analysis plate. After a 30-minute reaction, absorbance was measured at 450 nm using a microplate reader (Model 680; Bio-Rad). The cytotoxicity of 5-FU on HUVECs was determined based on the amount of LDH released.
On the technique in general: LDH leaks from cells whose membrane has failed.

The test system of a further data set is patients. To be noted: cited from earlier work.
Data set [1] has as its system subcutaneous muscle layer. The data set can be described thus: Pathological changes in the subcutaneous muscle layer after subcutaneous injection of 5-FU (H&E staining). The conditions noted are these: 5 mg pH 8.4 5-FU, after 24 hours. Also noted: key to pathological change score (degeneration, necrosis, inflammation, fibrosis): 0: absent; 1: mild; 2: moderate; 3: severe. Type of data set: in vivo, nude mice. On the procedure: To observe pathological changes in the surrounding tissue after injecting 5 mg of pH 8.4 5-FU near the tumor, the drug was locally administered to nude mice. After 24 hours, tissues, including muscle layers, were collected and subjected to H&E staining to examine degeneration, necrosis, inflammation, and fibrosis in the muscle layer. The extent of each pathological change was scored as follows: 0=absent, 1=mild, 2=moderate, 3=severe, and the results are shown in FIG. 10A and FIG. 10b. FIG. 10A presents observations at 40× magnification, while FIG. 10b presents observations at 100× magnification.

Another data set deals with HUVEC. The data set can be described thus: 5-FU cytotoxicity on HUVEC according to D-glucose or L-glucose concentration (MTS). Type of data set: cell-based, human. As for the experimental part:
An MTS cell proliferation assay was conducted to evaluate the cytotoxic effect of 5-FU on HUVEC according to D-glucose concentration under different pH conditions.
The cells were then incubated for an additional 24 hours in DMEM medium containing various concentrations of glucose.
To assess the cytotoxic effect of L-glucose on HUVEC, the experiment was conducted in the same manner as described in Example 2, Section 3.
To assess the cytotoxic effect of D-glucose or L-glucose on HUVEC, the experiment was conducted in the same manner as described in Example 2, Section 3.

In data set [2] the test system is thrombospondin-1 (TSP-1) in HUVEC. The data set can be described thus: TSP-1 protein expression in HUVEC by Western blot. Type of data set: cell-based, human. To be noted: prolonged exposure and higher drug concentrations of 5-FU, FIG. 3. On the procedure:
Thrombospondin (TSP) is a macromolecule with various functions, and among its isoforms, TSP-1 acts as an angiogenesis inhibitor. The following experiment was conducted to examine changes in TSP-1 expression in response to different concentrations of 5-FU.
Western blot analysis was conducted to confirm the expression of TSP-1 protein in the HUVEC (human umbilical vein endothelial cell) cell line.
HUVECs cultured in petri dishes were lysed using a buffer containing 50 mM Tris (pH 8.0), 150 mM NaCl, 1% Nonidet P-40, 0.5% sodium deoxycholate (SDC), 0.1% sodium dodecyl sulfate (SDS), and 1× protease inhibitor cocktail. The lysates were incubated on ice for 30 minutes, followed by centrifugation at 14,000 g for 10 minutes to collect the supernatant.
Protein quantification was performed using a bicinchoninic acid (BCA) protein assay kit (Pierce Chemical, Rockford, IL, USA). A total of 30 μg of protein was subjected to electrophoresis on a 10% SDS-polyacrylamide gel and subsequently transferred onto a nitrocellulose membrane. The membrane was blocked with blocking milk for 1 hour, then incubated with the same TSP-1 antibody used for immunostaining at room temperature for 1 hour. After three washes with Tris buffer containing 0.1% Tween 20 at 15-minute intervals, the membrane was incubated with a secondary antibody specific to the primary antibody at room temperature for 1 hour. […]
(In general: A western blot detects proteins with antibodies after separation by electrophoresis.)

Data set [3] deals with human gastric cancer cells. As to the kind of experiment: Human gastric cancer cell xenograft in nude mice, alkaline 5-FU injected adjacent to tumor. Type of data set: in vivo, nude mice (Crj: BALB/c-nu/nu), human tumor cells. The conditions noted are these: 5 mg 5-FU pH 8.4, three times at one-week intervals, 4 weeks, P<0.05, FIG. 8. On the procedure:
The animals used in the experiment were six male nude mice (Crj: BALB/c-nu/nu mice, male) aged five weeks and weighing approximately 30 grams, purchased from Orient. The mice were subjected to a one-week acclimation period in the laboratory before use. Each nude mouse was subcutaneously xenografted with 5×10^6 human gastric cancer cells suspended in 100 μL of PBS on the dorsal subcutaneous layer. The tumor size was periodically measured, and when it reached a diameter of 1 cm, the drug administration experiment was conducted.
The experimental animals were divided into two groups. One group served as the control group, receiving only physiological saline, while the other group was administered 5 mg of 5-FU at pH 8.4. The drug was injected 0.2 cc adjacent to the tumor three times at one-week intervals. After one month, the major and minor axes of the tumors growing on the dorsal epidermis were measured.
For orientation: In xenograft studies the graft and the host belong to different species.

Take `O=c1[nH]cc(F)c(=O)[nH]1` [5-FU, 5-fluorouracil]: the “amount of released LDH” value in the data set on HUVECs was “significantly increased”. In addition, in the data set on patients (due to phosphorylation in the gastrointestinal tract, damage to normal cells), the “myelosuppression and gastrointestinal toxicity” value was “frequent myelosuppression and gastrointestinal toxicity”. The “adverse effects on intravenous administration” value in the data set with patients (intravenous) was “associated with adverse effects such as thrombosis”. In addition, the “incidence of severe and potentially life-threatening cardiotoxicity” value in the data set on patients (reported cases) was 1.5% to 18. In addition, in data set [1], the “pathological change score (degeneration, necrosis, inflammation, fibrosis)” value was found to be 0 and the “pathological changes in the subcutaneous muscle layer at the injection site” value is “no pathological changes were observed”. Further, the “cell viability upon addition of 5-FU” value in the data set with HUVEC (5-FU added to L-glucose 5 mM and 25 mM, FIG. 14) was “further decreased cell viability”. The “cell viability upon addition of 5-FU” value in the data set with HUVEC (5-FU under different pH conditions added to D-glucose 5 mM and 25 mM, FIG. 13) is given as “further decrease in cell viability”. For the same compound, the TSP-1 expression levels result in data set [2] is given as “increased expression levels”. The “tumor size compared to before injection” value in data set [3] is recorded as “significantly reduced”.
